Patent EP0337598A2, “Use of porphyrins and metalloporphyrins in the treatment of diseases caused by Human Immunodeficiency Viruses” (GEORGIA STATE UNIVERSITY FOUNDATION, INC., priority 1988, dated 1989)
Counter-ions that a name gives are not always drawn. Like-named read-outs stand apart in the source and are kept apart here.

Key:
[1] = system: LAV strain of HIV; experiment: Assay of anti-HIV activity: HIV production in infected MT-4 cells; type: cell-based; settings: in the dark, result in words
[2] = system: Herpes simplex virus (HSV) type 1, strain WT-51; experiment: Anti-HSV activity: virus infectivity in culture fluid of infected BS-C-40 monolayers by plaque method; type: cell-based; settings: m.o.i. 0.01, 18 hours of incubation, result in words
Protocol: Herpes simplex virus (HSV) type 1, strain WT-51, and BS-C-40, an African green monkey kidney cell line, were used. HSV stock was prepared in BS-C-40 and the infectivity of the virus was measured on BS-C-40 monolayers by plaque method. Eagle's minimal essential medium (MEM) supplemented with 8% newborn calf serum was used as the culture medium and cells were incubated at 37°C in a humidified CO₂-incubator (5% CO₂, 95% air).
BS-C-40 monolayers were infected with HSV at the m.o.i. of 0.01 at 37°C for 1 hour and the monolayers were washed with MEM, and fresh culture medium was added. After 18 hours of incubation in the presence or absence of protoporpyrin, the virus infectivity in the culture fluid was measured by plaque method.
Two tenths ml aliquots of serially 10-fold diluted virus were inoculated onto confluent monolayer of cells in 35 mm plastic petridishes. After adsorption of the virus at 37°C for 1 hour, the monolayers were overlaid with 2 ml of MEM with 1% methylcellulose and 2% newborn calf serum. On day 3, the monolayers were stained with neutral red and plaque counts were made.

[3] = mouse, cited from earlier work
[4] = intravenous, rat; cited from earlier work
[5] = intravenous, rabbit; cited from earlier work
[6] = intravenous, cat; cited from earlier work

## C=CC1=C(C)c2cc3[nH]c(cc4nc(cc5[nH]c(cc1n2)c(C)c5CCC(=O)O)C(CCC(=O)O)=C4C)c(C)c3C=C [Protoporphyrin disodium salt]
[1]
  anti-HIV activity (antivirally active when production of HIV was reduced as compared with the control): potent anti-HIV activity
[2]
  anti-HSV activity: no anti-HSV activity
[3]; intraperitoneal
  LD₅₀: 1,028.6 mg/kg
[3]; intravenous
  LD₅₀: 347.3 mg/kg
[3]; oral
  LD₅₀: > 25,000.0 mg/kg
[3]; subcutaneous
  LD₅₀: 1,147.0 mg/kg
[4]
  LD₅₀: 240.3 mg/kg
[5]
  LD₅₀: 220.0 mg/kg
[6]
  LD₅₀: 215.5 mg/kg
